Tested on: single cells from the ventral hippocampus (vHipp)
Assay: Single-cell RNA sequencing (scRNA-seq) of the ventral hippocampus after ketamine treatment; differential expression per cell type; as to Mean-Ket: unit not given here
[1] = Astrocytes, ketamine 10 mg/kg i.p.
[2] = Astrocytes, ketamine 10 mg/kg i.p. vs saline
[3] = Endothelial, ketamine 10 mg/kg i.p.
[4] = Endothelial, ketamine 10 mg/kg i.p. vs saline

CNC1(c2ccccc2Cl)CCCCC1=O (racemic) [ketamine, (R,S)-ketamine]
Change (Aarsd1, Glut Neurons): Down
Mean-Ket (Aarsd1, Glut Neurons): 1.682
logFC (Aarsd1, Glut Neurons): −0.119
Change (Acad9, Glut Neurons): Up
Mean-Ket (Acad9, Glut Neurons): 1.372
logFC (Acad9, Glut Neurons): 0.210
Change (Aire, Glut Neurons): Down
Mean-Ket (Aire, Glut Neurons): 2.157
logFC (Aire, Glut Neurons): −0.116
Change (Akap5, Astrocytes): Down
Mean-Ket (Akap5, Astrocytes): 4.005
logFC (Akap5, Astrocytes): −0.219
Aire Mean-Ket [1]: 2.361
Aktip Mean-Ket [1]: 1.656
Atg2a Mean-Ket [1]: 1.418
Calm1 Mean-Ket [1]: 2.021
Calm2 Mean-Ket [1]: 1.730
Capza2 Mean-Ket [1]: 3.001
Cars2 Mean-Ket [1]: 2.703
Cep89 Mean-Ket [1]: 2.822
Cox7a2 Mean-Ket [1]: 1.052
Elp6 Mean-Ket [1]: 1.701
Fam193a Mean-Ket [1]: 2.684
Gje1 Mean-Ket [1]: 0.961
Gmeb1 Mean-Ket [1]: 2.962
Hadhb Mean-Ket [1]: 1.956
Haus8 Mean-Ket [1]: 1.269
Lztr1 Mean-Ket [1]: 1.556
Mettl3 Mean-Ket [1]: 2.842
Mrp19 Mean-Ket [1]: 2.904
Mterf3 Mean-Ket [1]: 1.289
Nop58 Mean-Ket [1]: 2.828
P3h3 Mean-Ket [1]: 2.495
Parp1 Mean-Ket [1]: 2.675
Polr2c Mean-Ket [1]: 2.613
Ppan Mean-Ket [1]: 2.916
Rfc2 Mean-Ket [1]: 0.929
Rpap1 Mean-Ket [1]: 1.265
Sec23ip Mean-Ket [1]: 2.886
Slc23a1 Mean-Ket [1]: 2.421
Snf8 Mean-Ket [1]: 2.945
Sumf2 Mean-Ket [1]: 1.532
Tecr Mean-Ket [1]: 1.562
Tuba1b Mean-Ket [1]: 1.065
Tubb2a Mean-Ket [1]: 0.960
Uba2 Mean-Ket [1]: 1.413
Vps8 Mean-Ket [1]: 2.087
Zcchc4 Mean-Ket [1]: 0.999
Aire Change [2]: Down
Aire logFC [2]: −0.106
Aktip Change [2]: Down
Aktip logFC [2]: −0.119
Atg2a Change [2]: Down
Atg2a logFC [2]: −0.105
Calm1 Change [2]: Down
Calm1 logFC [2]: −0.155
Calm2 Change [2]: Down
Calm2 logFC [2]: −0.130
Capza2 Change [2]: Down
Capza2 logFC [2]: −0.082
Cars2 Change [2]: Down
Cars2 logFC [2]: −0.090
Cep89 Change [2]: Down
Cep89 logFC [2]: −0.075
Cox7a2 Change [2]: Down
Cox7a2 logFC [2]: −0.144
Elp6 Change [2]: Down
Elp6 logFC [2]: −0.124
Fam193a Change [2]: Down
Fam193a logFC [2]: −0.088
Gje1 Change [2]: Down
Gje1 logFC [2]: −0.108
Gmeb1 Change [2]: Down
Gmeb1 logFC [2]: −0.074
Hadhb Change [2]: Down
Hadhb logFC [2]: −0.103
Haus8 Change [2]: Down
Haus8 logFC [2]: −0.116
Lztr1 Change [2]: Down
Lztr1 logFC [2]: −0.130
Mettl3 Change [2]: Down
Mettl3 logFC [2]: −0.077
Mrp19 Change [2]: Down
Mrp19 logFC [2]: −0.074
Mterf3 Change [2]: Down
Mterf3 logFC [2]: −0.125
Nop58 Change [2]: Down
Nop58 logFC [2]: −0.094
P3h3 Change [2]: Down
P3h3 logFC [2]: −0.092
Parp1 Change [2]: Down
Parp1 logFC [2]: −0.079
Polr2c Change [2]: Down
Polr2c logFC [2]: −0.091
Ppan Change [2]: Down
Ppan logFC [2]: −0.074
Rfc2 Change [2]: Down
Rfc2 logFC [2]: −0.121
Rpap1 Change [2]: Down
Rpap1 logFC [2]: −0.125
Sec23ip Change [2]: Down
Sec23ip logFC [2]: −0.086
Slc23a1 Change [2]: Down
Slc23a1 logFC [2]: −0.099
Snf8 Change [2]: Down
Snf8 logFC [2]: −0.074
Sumf2 Change [2]: Down
Sumf2 logFC [2]: −0.127
Tecr Change [2]: Down
Tecr logFC [2]: −0.242
Tuba1b Change [2]: Down
Tuba1b logFC [2]: −0.115
Tubb2a Change [2]: Down
Tubb2a logFC [2]: −0.113
Uba2 Change [2]: Down
Uba2 logFC [2]: −0.113
Vps8 Change [2]: Down
Vps8 logFC [2]: −0.120
Zcchc4 Change [2]: Down
Zcchc4 logFC [2]: −0.112
Change (Atp5a1, Glut Neurons): Down
Mean-Ket (Atp5a1, Glut Neurons): 0.832
logFC (Atp5a1, Glut Neurons): −0.162
Change (Atp5j2, Glut Neurons): Down
Mean-Ket (Atp5j2, Glut Neurons): 0.851
logFC (Atp5j2, Glut Neurons): −0.169
Change (Atp5j, Glut Neurons): Down
Mean-Ket (Atp5j, Glut Neurons): 1.199
logFC (Atp5j, Glut Neurons): −0.230
Change (Atp6v0e2, Astrocytes): Down
Mean-Ket (Atp6v0e2, Astrocytes): 1.529
logFC (Atp6v0e2, Astrocytes): −0.138
Change (Atp5h, Glut Neurons): Down
Mean-Ket (Atp5h, Glut Neurons): 1.341
logFC (Atp5h, Glut Neurons): −0.231
Change (Atxn2, Glut Neurons): Down
Mean-Ket (Atxn2, Glut Neurons): 1.752
logFC (Atxn2, Glut Neurons): −0.131
Change (Cars2, Glut Neurons): Down
Mean-Ket (Cars2, Glut Neurons): 2.514
logFC (Cars2, Glut Neurons): −0.095
Change (Casc4, Glut Neurons): Down
Mean-Ket (Casc4, Glut Neurons): 3.269
logFC (Casc4, Glut Neurons): −0.109
Change (Ccdc62, Glut Neurons): Down
Mean-Ket (Ccdc62, Glut Neurons): 1.370
logFC (Ccdc62, Glut Neurons): −0.131
Change (Cep89, Glut Neurons): Down
Mean-Ket (Cep89, Glut Neurons): 2.584
logFC (Cep89, Glut Neurons): −0.104
Change (Chn1, Glut Neurons): Down
Mean-Ket (Chn1, Glut Neurons): 1.219
logFC (Chn1, Glut Neurons): −0.192
Change (Chpt1, Glut Neurons): Down
Mean-Ket (Chpt1, Glut Neurons): 2.768
logFC (Chpt1, Glut Neurons): −0.092
Change (Cox6b1, Glut Neurons): Down
Mean-Ket (Cox6b1, Glut Neurons): 1.063
logFC (Cox6b1, Glut Neurons): −0.161
Change (Cpe, Glut Neurons): Down
Mean-Ket (Cpe, Glut Neurons): 1.060
logFC (Cpe, Glut Neurons): −0.123
Change (Cxcr2, Glut Neurons): Down
Mean-Ket (Cxcr2, Glut Neurons): 2.721
logFC (Cxcr2, Glut Neurons): −0.098
Change (D3Ertd254e, Glut Neurons): Down
Mean-Ket (D3Ertd254e, Glut Neurons): 1.540
logFC (D3Ertd254e, Glut Neurons): −0.179
Change (D6Wsu163e, Glut Neurons): Down
Mean-Ket (D6Wsu163e, Glut Neurons): 2.314
logFC (D6Wsu163e, Glut Neurons): −0.101
Change (Dars, Glut Neurons): Down
Mean-Ket (Dars, Glut Neurons): 1.380
logFC (Dars, Glut Neurons): −0.115
Change (Dhx30, Glut Neurons): Down
Mean-Ket (Dhx30, Glut Neurons): 1.310
logFC (Dhx30, Glut Neurons): −0.133
Change (Dpp10, Glut Neurons): Up
Mean-Ket (Dpp10, Glut Neurons): 1.344
logFC (Dpp10, Glut Neurons): 0.216
Change (Eef1akmt3, Astrocytes): Up
Mean-Ket (Eef1akmt3, Astrocytes): 1.918
logFC (Eef1akmt3, Astrocytes): 0.336
Change (Eif4a2, Glut Neurons): Down
Mean-Ket (Eif4a2, Glut Neurons): 1.524
logFC (Eif4a2, Glut Neurons): −0.234
Change (Enah, Glut Neurons): Down
Mean-Ket (Enah, Glut Neurons): 2.212
logFC (Enah, Glut Neurons): −0.108
Akap5 Mean-Ket [3]: 3.573
Eef1akmt3 Mean-Ket [3]: 1.735
Ilf2 Mean-Ket [3]: 1.206
Lrrc17 Mean-Ket [3]: 2.859
Saa3 Mean-Ket [3]: 1.407
Slco1a4 Mean-Ket [3]: 1.231
Vps8 Mean-Ket [3]: 1.667
Akap5 Change [4]: Down
Akap5 logFC [4]: −0.447
Eef1akmt3 Change [4]: Up
Eef1akmt3 logFC [4]: 0.511
Ilf2 Change [4]: Up
Ilf2 logFC [4]: 0.361
Lrrc17 Change [4]: Down
Lrrc17 logFC [4]: −0.407
Saa3 Change [4]: Up
Saa3 logFC [4]: 0.366
Slco1a4 Change [4]: Up
Slco1a4 logFC [4]: 0.415
Vps8 Change [4]: Down
Vps8 logFC [4]: −0.398
Change (Exosc5, Glut Neurons): Down
Mean-Ket (Exosc5, Glut Neurons): 1.196
logFC (Exosc5, Glut Neurons): −0.109
Change (Fam193a, Glut Neurons): Down
Mean-Ket (Fam193a, Glut Neurons): 2.472
logFC (Fam193a, Glut Neurons): −0.101
Change (Fgd4, Glut Neurons): Up
Mean-Ket (Fgd4, Glut Neurons): 2.397
logFC (Fgd4, Glut Neurons): 0.144
Change (Foxr1, Glut Neurons): Down
Mean-Ket (Foxr1, Glut Neurons): 2.380
logFC (Foxr1, Glut Neurons): −0.113
Change (Fubp1, Glut Neurons): Down
Mean-Ket (Fubp1, Glut Neurons): 2.828
logFC (Fubp1, Glut Neurons): −0.093
Change (Furin, Glut Neurons): Down
Mean-Ket (Furin, Glut Neurons): 1.335
logFC (Furin, Glut Neurons): −0.132
Change (Gapdh-ps15, Astrocytes): Down
Mean-Ket (Gapdh-ps15, Astrocytes): 1.333
logFC (Gapdh-ps15, Astrocytes): −0.157
Change (Gclm, Glut Neurons): Down
Mean-Ket (Gclm, Glut Neurons): 0.984
logFC (Gclm, Glut Neurons): −0.113
Change (Gmeb1, Glut Neurons): Down
Mean-Ket (Gmeb1, Glut Neurons): 2.782
logFC (Gmeb1, Glut Neurons): −0.087
Change (Golga3, Astrocytes): Down
Mean-Ket (Golga3, Astrocytes): 1.515
logFC (Golga3, Astrocytes): −0.136
Change (H2-T23, Glut Neurons): Down
Mean-Ket (H2-T23, Glut Neurons): 1.757
logFC (H2-T23, Glut Neurons): −0.173
Change (Hook3, Glut Neurons): Down
Mean-Ket (Hook3, Glut Neurons): 2.556
logFC (Hook3, Glut Neurons): −0.089
Change (Hsd3b2, Glut Neurons): Up
Mean-Ket (Hsd3b2, Glut Neurons): 1.162
logFC (Hsd3b2, Glut Neurons): 0.193
Change (Il17ra, Glut Neurons): Up
Mean-Ket (Il17ra, Glut Neurons): 1.490
logFC (Il17ra, Glut Neurons): 0.252
Change (Ilf2, Astrocytes): Up
Mean-Ket (Ilf2, Astrocytes): 1.350
logFC (Ilf2, Astrocytes): 0.295
Change (Ipo7, Glut Neurons): Down
Mean-Ket (Ipo7, Glut Neurons): 1.687
logFC (Ipo7, Glut Neurons): −0.119
Change (Kcnj16, Glut Neurons): Up
Mean-Ket (Kcnj16, Glut Neurons): 1.052
logFC (Kcnj16, Glut Neurons): 0.227
Change (Kif3a, Glut Neurons): Down
Mean-Ket (Kif3a, Glut Neurons): 1.198
logFC (Kif3a, Glut Neurons): −0.141
Change (Loxl2, Glut Neurons): Down
Mean-Ket (Loxl2, Glut Neurons): 2.605
logFC (Loxl2, Glut Neurons): −0.098
Change (Lrrc17, Astrocytes): Down
Mean-Ket (Lrrc17, Astrocytes): 3.291
logFC (Lrrc17, Astrocytes): −0.192
Change (Lsm8, Glut Neurons): Down

From patent US20240065988A1, “COMBINED USE OF KETAMINE AND RETIGABINE (EZOGABINE) FOR THE TREATMENT OF PSYCHIATRIC DISORDERS” (Yeda Research and Development Co. Ltd., priority 2021, published 2024)
